We go through three compounds from BindingDB's records for doi:10.1007/s002100000312 (Biocentre Niederursel, 2000).

Structures are written as SMILES.

One test deals with T1, P2X purinoceptor 7 (Homo sapiens, UniProt Q99572).
T1 sequence (Q99572 whole entry): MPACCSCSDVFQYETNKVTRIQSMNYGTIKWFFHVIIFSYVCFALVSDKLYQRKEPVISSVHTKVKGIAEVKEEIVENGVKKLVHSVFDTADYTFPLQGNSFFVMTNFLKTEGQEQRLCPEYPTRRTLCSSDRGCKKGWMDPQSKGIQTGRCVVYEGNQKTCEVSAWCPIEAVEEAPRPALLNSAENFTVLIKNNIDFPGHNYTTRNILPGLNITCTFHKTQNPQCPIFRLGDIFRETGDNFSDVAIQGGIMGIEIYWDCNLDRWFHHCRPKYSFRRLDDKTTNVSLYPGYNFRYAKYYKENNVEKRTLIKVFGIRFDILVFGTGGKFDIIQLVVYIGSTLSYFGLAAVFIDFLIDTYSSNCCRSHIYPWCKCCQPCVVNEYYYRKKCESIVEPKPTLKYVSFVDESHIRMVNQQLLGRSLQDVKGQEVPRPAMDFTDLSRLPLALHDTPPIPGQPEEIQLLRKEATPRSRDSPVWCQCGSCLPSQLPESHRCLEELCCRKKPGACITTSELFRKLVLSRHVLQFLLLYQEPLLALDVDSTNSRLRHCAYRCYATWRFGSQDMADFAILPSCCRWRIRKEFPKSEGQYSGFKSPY

Test [1] concerns the target T2, P2X purinoceptor 1 (Homo sapiens, UniProt P51575).
T2 sequence (P51575 whole entry): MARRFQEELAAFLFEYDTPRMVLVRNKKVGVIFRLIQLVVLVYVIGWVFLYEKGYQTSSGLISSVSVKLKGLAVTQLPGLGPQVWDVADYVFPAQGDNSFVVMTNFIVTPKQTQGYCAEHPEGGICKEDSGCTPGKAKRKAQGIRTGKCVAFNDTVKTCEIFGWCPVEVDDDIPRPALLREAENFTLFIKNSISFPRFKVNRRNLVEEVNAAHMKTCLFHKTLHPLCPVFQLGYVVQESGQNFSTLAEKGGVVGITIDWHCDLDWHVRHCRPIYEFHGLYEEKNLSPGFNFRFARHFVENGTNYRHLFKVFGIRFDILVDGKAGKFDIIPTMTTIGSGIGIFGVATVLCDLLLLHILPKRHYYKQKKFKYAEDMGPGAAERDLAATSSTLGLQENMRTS

The target of test [2] is T3, P2X purinoceptor 1 (Rattus norvegicus, UniProt P47824).
T3 sequence (P47824 whole entry): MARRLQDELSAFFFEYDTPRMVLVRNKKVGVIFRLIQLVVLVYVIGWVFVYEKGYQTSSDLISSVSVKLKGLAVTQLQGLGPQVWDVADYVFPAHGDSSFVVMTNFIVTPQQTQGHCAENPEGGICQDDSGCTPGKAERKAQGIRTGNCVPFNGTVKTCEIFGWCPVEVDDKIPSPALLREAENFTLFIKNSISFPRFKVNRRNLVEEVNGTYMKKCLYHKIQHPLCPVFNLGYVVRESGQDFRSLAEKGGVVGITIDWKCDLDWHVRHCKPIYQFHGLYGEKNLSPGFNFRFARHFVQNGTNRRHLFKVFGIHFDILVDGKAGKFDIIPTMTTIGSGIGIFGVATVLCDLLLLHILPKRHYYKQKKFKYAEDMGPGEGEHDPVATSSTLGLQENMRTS

A further test has as its target T4, P2X purinoceptor 2 (Rattus norvegicus, UniProt P49653).
T4 sequence (P49653 whole entry): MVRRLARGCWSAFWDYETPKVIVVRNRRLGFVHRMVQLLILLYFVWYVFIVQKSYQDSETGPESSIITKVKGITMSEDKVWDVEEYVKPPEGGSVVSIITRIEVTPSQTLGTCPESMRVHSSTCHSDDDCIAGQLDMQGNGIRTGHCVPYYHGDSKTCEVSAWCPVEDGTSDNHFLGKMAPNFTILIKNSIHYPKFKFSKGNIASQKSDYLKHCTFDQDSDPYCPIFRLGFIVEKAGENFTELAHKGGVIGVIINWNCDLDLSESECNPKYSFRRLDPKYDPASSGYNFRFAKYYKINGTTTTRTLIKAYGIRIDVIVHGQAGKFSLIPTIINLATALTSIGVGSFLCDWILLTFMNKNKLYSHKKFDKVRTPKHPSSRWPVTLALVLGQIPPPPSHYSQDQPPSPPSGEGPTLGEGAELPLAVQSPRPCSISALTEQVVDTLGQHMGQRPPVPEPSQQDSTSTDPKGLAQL

The target in another test is T5, P2X purinoceptor 3 (Rattus norvegicus, UniProt P49654).
T5 sequence (P49654 whole entry): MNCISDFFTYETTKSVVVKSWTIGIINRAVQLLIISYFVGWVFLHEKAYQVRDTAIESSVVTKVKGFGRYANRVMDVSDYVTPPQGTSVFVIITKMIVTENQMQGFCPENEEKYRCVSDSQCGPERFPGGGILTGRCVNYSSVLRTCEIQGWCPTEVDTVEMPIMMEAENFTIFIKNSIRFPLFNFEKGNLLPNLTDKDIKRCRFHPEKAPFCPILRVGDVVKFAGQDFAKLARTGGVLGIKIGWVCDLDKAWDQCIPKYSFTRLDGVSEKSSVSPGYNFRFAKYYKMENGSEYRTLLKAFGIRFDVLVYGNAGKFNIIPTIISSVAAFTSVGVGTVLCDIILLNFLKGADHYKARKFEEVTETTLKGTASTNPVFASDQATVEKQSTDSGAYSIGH

A further test concerns the target T6, P2X purinoceptor 4 (Homo sapiens, UniProt Q99571).
T6 sequence (Q99571 whole entry): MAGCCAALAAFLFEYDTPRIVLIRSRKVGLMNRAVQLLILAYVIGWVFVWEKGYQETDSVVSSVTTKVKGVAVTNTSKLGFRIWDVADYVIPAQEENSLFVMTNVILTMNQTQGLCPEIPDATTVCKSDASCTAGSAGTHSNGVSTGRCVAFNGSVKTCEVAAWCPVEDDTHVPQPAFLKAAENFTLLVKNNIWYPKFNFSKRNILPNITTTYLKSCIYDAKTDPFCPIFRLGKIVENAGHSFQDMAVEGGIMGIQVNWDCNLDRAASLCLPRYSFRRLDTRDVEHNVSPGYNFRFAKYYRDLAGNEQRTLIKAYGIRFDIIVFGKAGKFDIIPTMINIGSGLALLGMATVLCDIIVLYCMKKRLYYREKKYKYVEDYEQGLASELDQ

`O=C(Nc1ccc(C(=O)Nc2ccc(C(=O)Nc3ccc(S(=O)(=O)O)c4cc(S(=O)(=O)O)cc(S(=O)(=O)O)c34)cc2)cc1)Nc1ccc(C(=O)Nc2ccc(C(=O)Nc3ccc(S(=O)(=O)O)c4cc(S(=O)(=O)O)cc(S(=O)(=O)O)c34)cc2)cc1` [CAS_5311315]: the Ki on P2X purinoceptor 7 is over 10000 nM; at P2X purinoceptor 1 [1], 1000 nM; at P2X purinoceptor 1 [2], 1000 nM; on P2X purinoceptor 2, over 10000 nM; at P2X purinoceptor 3, 1000 nM; on P2X purinoceptor 4, over 10000 nM.
As for `O=C(Nc1cccc(Nc2ccc(S(=O)(=O)O)c3cc(S(=O)(=O)O)cc(S(=O)(=O)O)c23)c1)Nc1cccc(Nc2ccc(S(=O)(=O)O)c3cc(S(=O)(=O)O)cc(S(=O)(=O)O)c23)c1` [NSC_5311313], the inhibitory constant (Ki) was 1000 nM at P2X purinoceptor 1 [2], over 10000 nM at P2X purinoceptor 2, 1000 nM at P2X purinoceptor 3 and over 10000 nM at P2X purinoceptor 4.
For the compound `Cc1ccc(C(=O)Nc2ccc(S(=O)(=O)O)c3cc(S(=O)(=O)O)cc(S(=O)(=O)O)c23)cc1NC(=O)c1cccc(NC(=O)Nc2cccc(C(=O)Nc3cc(C(=O)Nc4ccc(S(=O)(=O)O)c5cc(S(=O)(=O)O)cc(S(=O)(=O)O)c45)ccc3C)c2)c1` [suramin], the Ki at P2X purinoceptor 1 [2] was 50 nM; at P2X purinoceptor 2, over 10000 nM; on P2X purinoceptor 3 it was over 10000 nM; at P2X purinoceptor 4, 5000 nM.
